These are literature values, as cited in patent publication US11179370B2, “Cannabinoid receptor antagonists/inverse agonists useful for treating disease conditions, including metabolic disorders and cancers” (Jenrin Discovery, LLC, priority 2012, dated 2021).

For the data set the following is noted: type 2 diabetes patients without other anti-diabetic medication, after six months of treatment, baseline value 7.9.

Structures are written as SMILES.

With `Cc1c(C(=O)NN2CCCCC2)nn(-c2ccc(Cl)cc2Cl)c1-c1ccc(Cl)cc1` [rimonabant], the HbA1c levels lowered was 0.8%.
